Experimental data as given in the supplement of paper PMC10307832.

Tests used:
Assay in all cases: relative viability (nuclei count vs DMSO), 5 days (fraction); higher = more cells survive
BI-2536 + Luminespib = compound: CC[C@@H]1C(=O)N(C)c2cnc(Nc3ccc(C(=O)NC4CCN(C)CC4)cc3OC)nc2N1C1CCCC1 [BI-2536] + CCNC(=O)c1noc(-c2cc(C(C)C)c(O)cc2O)c1-c1ccc(CN2CCOCC2)cc1 [Luminespib] (partner 0.01 µM)
How it was run: (§1)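 Medians of duplicate plates are given as relative viability. That measure is the nuclei count in treated wells divided by the count in vehicle wells. Counts were taken on 4× images of lung cancer cell lines in 1536-well plates, 5 days after pin-tool dosing the day after seeding with one drug alone or a fixed anchor-drug dose plus five library-drug doses (not always all listed) in √10 steps.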

BI-2536 + AZD7762 = compound: CC[C@@H]1C(=O)N(C)c2cnc(Nc3ccc(C(=O)NC4CCN(C)CC4)cc3OC)nc2N1C1CCCC1 [BI-2536] + NC(=O)Nc1cc(-c2cccc(F)c2)sc1C(=O)N[C@H]1CCCNC1 [AZD7762] (partner 0.2 µM)
How it was run: as §1

BI-2536 + Lapatinib = compound: CC[C@@H]1C(=O)N(C)c2cnc(Nc3ccc(C(=O)NC4CCN(C)CC4)cc3OC)nc2N1C1CCCC1 [BI-2536] + CS(=O)(=O)CCNCc1ccc(-c2ccc3ncnc(Nc4ccc(OCc5cccc(F)c5)c(Cl)c4)c3c2)o1 [Lapatinib] (partner 2 µM)
How it was run: as §1

NPK76-II-72-1 + OSI-027 = compound: CC1CC(=O)N(C2=CN=C(N=C2N1C3CCCC3)NC4=C(C=C(C=C4)C(=O)NC5CCN(CC5)C)OC)C [NPK76-II-72-1] + COc1cccc2cc(-c3nc([C@H]4CC[C@H](C(=O)O)CC4)n4ncnc(N)c34)[nH]c12 [OSI-027] (partner 0.5 µM)
How it was run: as §1

Cell Line	relative viability (BI-2536 + Luminespib; first compound 0.01 µM)	relative viability (BI-2536 + Luminespib; first compound 0.03162 µM)	relative viability (BI-2536 + Luminespib; first compound 0.1 µM)	relative viability (BI-2536 + Luminespib; first compound 0.3162 µM)	relative viability (BI-2536 + Luminespib; first compound 1 µM)	relative viability (BI-2536 + AZD7762; first compound 0.01 µM)	relative viability (BI-2536 + AZD7762; first compound 0.03162 µM)	relative viability (BI-2536 + AZD7762; first compound 0.1 µM)	relative viability (BI-2536 + AZD7762; first compound 0.3162 µM)	relative viability (BI-2536 + AZD7762; first compound 1 µM)	relative viability (BI-2536 + Lapatinib; first compound 0.01 µM)	relative viability (BI-2536 + Lapatinib; first compound 0.03162 µM)	relative viability (BI-2536 + Lapatinib; first compound 0.1 µM)	relative viability (BI-2536 + Lapatinib; first compound 0.3162 µM)	relative viability (BI-2536 + Lapatinib; first compound 1 µM)	relative viability (NPK76-II-72-1 + OSI-027; first compound 0.01 µM)	relative viability (NPK76-II-72-1 + OSI-027; first compound 0.03162 µM)	relative viability (NPK76-II-72-1 + OSI-027; first compound 0.1 µM)	relative viability (NPK76-II-72-1 + OSI-027; first compound 0.3162 µM)	relative viability (NPK76-II-72-1 + OSI-027; first compound 1 µM)
PC-3 [JPC-3]	0.705	0.683	0.496	0.215	0.205	0.878	0.76	0.321	0.216	0.197	0.462	0.456	0.441	0.451	0.233	0.664	0.742	0.78	0.711	0.889
NCI-H650	0.728	0.622	0.21	0.13	0.103	0.944	1.4	0.541	0.201	0.138	0.882	0.85	0.166	0.214	0.151	0.512	0.565	0.515	0.49	0.623
NCI-H838	0.357	0.307	0.146	0.125	0.114	0.905	0.803	0.831	0.634	0.634	1.04	0.877	0.155	0.101	0.133	0.323	0.363	0.385	0.395	0.442
NCI-H2405	0.599	0.435	0.359	0.283	0.31	0.698	0.624	0.269	0.303	0.289	1.01	0.97	0.301	0.146	0.448	0.64	0.672	0.633	0.627	0.67
NCI-H1395	0.582	0.605	0.511	0.361	0.339	0.382	0.348	0.319	0.351	0.325	0.868	0.905	0.415	0.353	0.733	0.633	0.617	0.677	0.62	0.695
NCI-H1915	0.848	0.379	0.219	0.0675	0.0811	0.641	0.696	0.535	0.195	0.109	0.882	0.965	0.752	0.62	0.0794	0.616	0.708	0.659	0.584	0.654
CAL-12T	0.774	0.229	0.173	0.124	0.202	0.608	0.712	0.619	0.177	0.187	0.646	0.799	0.582	0.186	0.177	0.626	0.787	0.601	0.683	0.823
LXF-289	0.624	0.533	0.319	0.0739	0.0875	1	1.14	0.61	0.0819	0.083	0.889	0.839	0.443	0.0583	0.0798	0.704	0.849	0.684	0.763	0.783
